In paper PMC5552954, “Regulation of Burkholderia cenocepacia biofilm formation by RpoN and the c‐di‐GMP effector BerB” (MicrobiologyOpen, 2017) one finds Kd data, which are given here for one substance.

The term Kd denotes the free concentration of one partner at which half of the binding sites on the other are occupied at equilibrium, for simple one-to-one binding. High values mean a looser complex, low ones a tighter complex.

One assay addresses T1, BerA (Burkholderia cenocepacia, UniProt B4EIC5).
T1 construct: gene BCAM1349; berA in pGEX-6P-2, expressed in E. coli Rosetta (DE3) pLysS as GST fusion, eluted with glutathione
In words: SPR, steady-state affinity fit. Type of assay: binding. As to conditions: labelled compound; biotinylated c-di-GMP immobilised on chip, protein injected; PBS buffer pH 7.4; known binder as positive control. In general terms: Surface plasmon resonance follows binding to a sensor surface in real time, without labels.

A further assay has as its target T2, BerB (Burkholderia cenocepacia, UniProt B4EHY3).
T2 construct: gene BCAM1342; berB in pGEX-6P-2, expressed in E. coli Rosetta (DE3) pLysS as GST fusion, eluted with glutathione
As to the kind of experiment: SPR, steady-state affinity fit. Type of assay: binding. The conditions noted are these: labelled compound; biotinylated c-di-GMP immobilised on chip, protein injected; HEPES buffer pH 7.4, 150 mmol/L NaCl, 0.05% Tween. The text has this: SPR, steady-state affinity fit on BerB | BerB was able to bind to the biotinylated c‐di‐GMP in a concentration‐dependent manner

T2 sequence (B4EHY3 entry or part of it): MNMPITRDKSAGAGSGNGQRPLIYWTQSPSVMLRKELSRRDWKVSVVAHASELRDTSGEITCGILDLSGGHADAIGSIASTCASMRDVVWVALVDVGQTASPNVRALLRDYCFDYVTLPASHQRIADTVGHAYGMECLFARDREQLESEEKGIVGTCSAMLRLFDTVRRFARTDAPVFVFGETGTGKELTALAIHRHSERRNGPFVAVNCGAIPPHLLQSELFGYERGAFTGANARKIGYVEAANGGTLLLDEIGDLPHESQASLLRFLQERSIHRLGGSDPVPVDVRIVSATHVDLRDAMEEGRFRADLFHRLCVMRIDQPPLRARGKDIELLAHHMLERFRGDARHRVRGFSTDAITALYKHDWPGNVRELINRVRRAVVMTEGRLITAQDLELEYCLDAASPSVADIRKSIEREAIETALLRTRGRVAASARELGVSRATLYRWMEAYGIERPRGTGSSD
T1 sequence (B4EIC5 entry or part of it): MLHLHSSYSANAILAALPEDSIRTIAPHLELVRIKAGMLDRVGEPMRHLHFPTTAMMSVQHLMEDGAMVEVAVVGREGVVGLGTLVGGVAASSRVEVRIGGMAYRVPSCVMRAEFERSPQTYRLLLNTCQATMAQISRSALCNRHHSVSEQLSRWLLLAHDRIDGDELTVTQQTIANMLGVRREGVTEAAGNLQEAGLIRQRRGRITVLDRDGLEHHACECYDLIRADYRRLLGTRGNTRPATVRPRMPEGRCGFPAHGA

As for biotinylated c-di-GMP, the Kd on BerA and at BerB was about 3000 nM in each case.
